The record followed here is ChEMBL document CHEMBL1138343 (J Med Chem, 2007).

A word on the EC50: it is the concentration at which the effect is half-maximal. By IC50 is commonly meant the concentration at which inhibition is half-maximal. Low readings indicate higher potency, high ones lower potency. The term pEC50 denotes the negative decadic logarithm of the EC50, by convention in mol/L. Read a low pEC50 as a high EC50.

Experiment [1] deals with T1, Glucocorticoid receptor (Homo sapiens, UniProt P04150).
T1 sequence (P04150 whole entry): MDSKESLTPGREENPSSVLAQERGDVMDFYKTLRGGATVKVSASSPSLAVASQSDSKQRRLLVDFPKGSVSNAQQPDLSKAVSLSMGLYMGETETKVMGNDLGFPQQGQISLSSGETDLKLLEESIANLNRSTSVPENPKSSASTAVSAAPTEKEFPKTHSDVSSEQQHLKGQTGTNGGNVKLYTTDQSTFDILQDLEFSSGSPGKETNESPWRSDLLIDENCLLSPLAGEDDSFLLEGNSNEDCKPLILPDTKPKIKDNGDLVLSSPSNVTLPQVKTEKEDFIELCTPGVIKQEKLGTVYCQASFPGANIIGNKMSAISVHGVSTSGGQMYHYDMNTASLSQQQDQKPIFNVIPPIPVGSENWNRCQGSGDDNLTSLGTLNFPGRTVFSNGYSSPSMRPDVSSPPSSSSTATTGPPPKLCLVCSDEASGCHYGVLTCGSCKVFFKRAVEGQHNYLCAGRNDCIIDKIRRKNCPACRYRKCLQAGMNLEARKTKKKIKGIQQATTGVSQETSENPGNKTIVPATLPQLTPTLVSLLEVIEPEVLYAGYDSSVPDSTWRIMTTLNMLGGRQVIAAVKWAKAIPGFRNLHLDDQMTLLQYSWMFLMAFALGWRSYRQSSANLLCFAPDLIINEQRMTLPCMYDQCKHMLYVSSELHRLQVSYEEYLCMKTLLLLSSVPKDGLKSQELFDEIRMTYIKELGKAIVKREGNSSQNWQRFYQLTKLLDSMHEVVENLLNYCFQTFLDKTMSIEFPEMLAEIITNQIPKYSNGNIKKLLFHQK
As to the kind of experiment: Agonist activity at glucocorticoid receptor in human A549 cells by MMTV transactivation assay. Type of experiment: functional, cell-based. The conditions noted are these: for pEC50: a549.

Experiment [2] deals with T1, Glucocorticoid receptor.
In experiment [3] the target is T1, Glucocorticoid receptor. The source holds these as a separate data set.
Description: Agonist activity at glucocorticoid receptor in human A549 cells by NF-kappaB transrepression assay
Experiment [4] has as its target T1, Glucocorticoid receptor. This is another data set of the same source.

In turn, `Cc1noc(=O)c2ccc(NC(=O)C(O)(CC3(C4CCCC4)CCCc4ccccc43)C(F)(F)F)cc12` (stereo not given) gave a concentration giving a half-maximal response (EC50) in experiment [1] of 17.8 nM. Moreover, the IC50 in experiment [2] is 8.13 nM; in experiment [3], 2.04 nM; in experiment [4], 53.7 nM.
On to `CC1(CC(O)(Cc2cc3ccccc3[nH]2)C(F)(F)F)CCCc2ccccc21` (stereo not given), for which the EC50 in experiment [1] was 41.7 nM. Also, the IC50 in experiment [2] was 22.9 nM; in experiment [3], 42.7 nM; in experiment [4] it was 447 nM.
As to `CCC1(CC(O)(Cc2cc(Cl)nc3ccccc23)C(F)(F)F)CCCc2ccccc21` (stereo not given), it took 51.3 nM to reach a half-maximal effect in experiment [1] (EC50). The IC50 in experiment [2] was 28.2 nM; in experiment [3], 30.2 nM.
Regarding `OC(Cc1ccnc2ccccc12)(CC1(C2CCCC2)CCCc2ccccc21)C(F)(F)F` (stereo not given), the EC50 in experiment [1] was greater than 10000 nM. For the same molecule, the results for the IC50 in experiment [2] and in experiment [3] were 148 nM and 741 nM, respectively.
With `CCC1(CC(O)(Cc2[nH]c3ccccc3c2C#N)C(F)(F)F)CCCc2ccccc21` (stereo not given), the concentration for a half-maximal effect (EC50) in experiment [1] was greater than 1000 nM. Also, the concentration for half-maximal inhibition (IC50) in experiment [2] was 7.59 nM; in experiment [3] it was 6.61 nM; in experiment [4], 57.5 nM.
`CC1(CC(O)(CNc2cccc3ncccc23)C(F)(F)F)CCCc2ccccc21` (stereo not given) had a concentration giving a half-maximal response (EC50) in experiment [1] of 13.5 nM. Moreover, the half-inhibitory concentration (IC50) in experiment [2] was 6.31 nM; in experiment [3] it was 3.09 nM.
Taken in the same sequence, the figures for `CCC1(CC(O)(Cn2ccc(=O)c3ccccc32)C(F)(F)F)CCCc2ccccc21` (stereo not given) were greater than 1000 nM, 14.1 nM and 8.13 nM.
`CCC1(CC(O)(CNc2cccc3ncccc23)C(F)(F)F)CCCc2ccccc21` (stereo not given) gave an EC50 in experiment [1] greater than 1000 nM. Besides, the IC50 in experiment [2] is 11.2 nM; in experiment [3], 12.3 nM.
Molecule `CC1(CC(O)(Cn2ccc(=O)c3ccccc32)C(F)(F)F)CCCc2ccccc21` (stereo in doubt; 17D1) displayed a pEC50 in experiment [1] of less than 6. For the same molecule, the results for the 50% inhibitory concentration (IC50) in experiment [2], in experiment [3] and in experiment [4] were 14.1 nM, 49 nM and 224 nM, respectively.
In the case of `CC1(CC(O)(Cn2ccc(=O)c3ccccc32)C(F)(F)F)CCCc2ccccc21` (stereo in doubt; 17D2), the EC50 in experiment [1] is greater than 1000 nM. The IC50 in experiment [2] is 34.7 nM; in experiment [3], greater than 1000 nM; in experiment [4], 708 nM.
On to `CCC1(CC(O)(Cc2cc3ccccc3[nH]2)C(F)(F)F)CCCc2ccccc21` (stereo in doubt; 20D1), for which, in experiment [1], a half-maximal effect (EC50) was put at 64.6 nM. The concentration for half-maximal inhibition (IC50) is 31.6 nM in experiment [2] and 57.5 nM in experiment [3].
In experiment [1], `CCC1(CC(O)(Cc2cc3ccccc3[nH]2)C(F)(F)F)CCCc2ccccc21` (stereo in doubt; 20D1E1) had an EC50 of 61.7 nM. The IC50 in experiment [2] is 14.1 nM; in experiment [3] it was 11.2 nM; in experiment [4], 245 nM.
Consider `CCC1(CC(O)(Cc2cc3ccccc3[nH]2)C(F)(F)F)CCCc2ccccc21` (stereo in doubt; 20D1E2), for which the IC50 in experiment [2] is 1260 nM; in experiment [3], greater than 1000 nM.
`CCC1(CC(O)(Cc2cc3c(C)cc(C#N)cc3[nH]2)C(F)(F)F)CCCc2ccccc21` (stereo in doubt; 21D1) had an EC50 in experiment [1] of 58.9 nM. For the same molecule, the results for the half-maximal inhibitory concentration (IC50) in experiment [2] and in experiment [3] were 89.1 nM and 7.24 nM, respectively.
Take `CCC1(CC(O)(Cc2cc3c(C)cc(C#N)cc3[nH]2)C(F)(F)F)CCCc2ccccc21` (stereo in doubt; 21D1E2): it took 51.3 nM to reach a half-maximal effect in experiment [1] (EC50). Also, the IC50 in experiment [2] was 38.9 nM; in experiment [3] it was 3.8 nM.
Consider `CCC1(CC(O)(Cc2cc3ccncc3[nH]2)C(F)(F)F)CCCc2ccccc21` (stereo in doubt; 23D1), for which the pEC50 in experiment [1] is recorded as less than 6. For the same molecule, the IC50 in experiment [2] is 28.2 nM; in experiment [3], 20 nM.
For `CCC1(CC(O)(Cc2cc3ccncc3[nH]2)C(F)(F)F)CCCc2ccccc21` (stereo in doubt; 23D1E1), in experiment [1], the concentration for a half-maximal effect (EC50) is greater than 1000 nM. The IC50 in experiment [2] was 8.91 nM; in experiment [3], 8.91 nM; in experiment [4], 741 nM.
Molecule `CCC1(CC(O)(Cc2ccnc3ccccc23)C(F)(F)F)CCCc2ccccc21` (stereo in doubt; 33D1) showed a concentration for a half-maximal effect (EC50) in experiment [1] of 38 nM. The figures for the IC50 in experiment [2], in experiment [3] and in experiment [4] were 15.1 nM, 4.9 nM and 5010 nM, respectively.
In experiment [1], `CCC1(CC(O)(Cc2ccnc3ccccc23)C(F)(F)F)CCCc2ccccc21` (stereo in doubt; 33D1E1) gave an EC50 greater than 1000 nM. Further, the results for the IC50 in experiment [2] and in experiment [3] were 10 nM and 1.58 nM, respectively.
Taken in the same sequence, the figures for `CCC1(CC(O)(Cc2ccnc3ccccc23)C(F)(F)F)CCCc2ccccc21` (stereo in doubt; 33D2) were greater than 10000 nM, 33.1 nM and 275 nM.
In experiment [1], `CC1(CC(O)(Cc2ccnc3ccccc23)C(F)(F)F)CCCc2ccccc21` (stereo in doubt; 41D1) had a half-maximal effective concentration (EC50) of 12.9 nM. For the same molecule, the IC50 in experiment [2] is 15.1 nM; in experiment [3], 7.08 nM.
The corresponding values for `CC1(CC(O)(Cc2ccnc3ccccc23)C(F)(F)F)CCCc2ccccc21` (stereo in doubt; 41D2) are greater than 10000 nM, 24 nM and greater than 10000 nM.
The corresponding values for `CCC1(CC(O)(CNc2cccc3nc(C)ccc23)C(F)(F)F)CCCc2ccccc21` (stereo in doubt; 45D1) are 13.2 nM, 14.8 nM and 2.4 nM.
With `CCC1(CC(O)(CNc2cccc3nc(C)ccc23)C(F)(F)F)CCCc2ccccc21` (stereo in doubt; 45D1E1), the concentration for a half-maximal effect (EC50) in experiment [1] was 11 nM. The concentration for half-maximal inhibition (IC50) in experiment [2] was 14.8 nM; in experiment [3], 1.95 nM.
The corresponding values for `CCC1(CC(O)(CNc2cccc3nc(C)ccc23)C(F)(F)F)CCCc2ccccc21` (stereo in doubt; 45D2) are 162 nM, 18.6 nM and 49 nM.
In experiment [1], `CCC1(CC(O)(CNc2cccc3nc(C)ccc23)C(F)(F)F)CCCc2ccccc21` (stereo in doubt; 45D2E1) gave an EC50 of 288 nM. Also, the IC50 is 17.4 nM in experiment [2] and 45.7 nM in experiment [3].
The corresponding values for `CCC1(CC(O)(CNc2cccc3cnccc23)C(F)(F)F)CCCc2ccccc21` (stereo in doubt; 49D1) are 32.4 nM, 21.4 nM and 1.26 nM.
`CCC1(CC(O)(CNc2cccc3cnccc23)C(F)(F)F)CCCc2ccccc21` (stereo in doubt; 49D1E2) showed a concentration for a half-maximal effect (EC50) in experiment [1] greater than 1000 nM. Further, the half-maximal inhibitory concentration (IC50) in experiment [2] is 10 nM; in experiment [3], 2.19 nM.
In the case of `CC1(CC(O)(CNc2cccc3cnccc23)C(F)(F)F)CCCc2ccccc21` (stereo in doubt; 54D1E2), the EC50 in experiment [1] is 8.32 nM. Also, the IC50 in experiment [2] is 8.71 nM; in experiment [3], 1.17 nM; in experiment [4], 102 nM.
`CC1(CC(O)(CNc2cccc3cnccc23)C(F)(F)F)CCCc2ccccc21` (stereo in doubt; 54D2E1) gave an EC50 in experiment [1] of 257 nM. In addition, the concentration for half-maximal inhibition (IC50) in experiment [2] was 74.1 nM; in experiment [3] it was 15.1 nM.
Consider `Cc1ccc2c(NCC(O)(CC3(C)CCCc4ccccc43)C(F)(F)F)cccc2n1` (stereo in doubt; 55D1E1), for which, in experiment [1], the EC50 was 9.55 nM. Besides, the values for the half-maximal inhibitory concentration (IC50) in experiment [2], in experiment [3] and in experiment [4] were 5.01 nM, 0.501 nM and 77.6 nM, respectively.
Turning to `Cc1ccc2c(NCC(O)(CC3(C)CCCc4ccccc43)C(F)(F)F)cccc2n1` (stereo in doubt; 55D2E1), a half-maximal effect in experiment [1] (EC50) was put at 72.4 nM. In addition, the half-maximal inhibitory concentration (IC50) in experiment [2] and in experiment [3] was 9.12 nM in each case.
